Results from US20040102524A1, “Method of treatment” (priority 2001, published 2004).

System: uric acid levels
Test: Clinical data for reduction of uric acid levels in human volunteers
Format: in vivo
Set-up: Mean uric acid 24 hr. after dose: unit not given here
Details: for mean uric acid blood level reduced by: 24 hours after administration vs baseline; for % at 24 hrs. (mean blood level of uric acid at 24 hours after administration as a percentage of the baseline level) / Mean uric acid 24 hr. after dose: oral tablets; for Mean uric acid 24 hr. after dose: plasma
Method: Test subjects were orally administered tablets containing N-propanesulfonyl-6-[N-(5-bromo-2-(cyclopropylmethoxy)benzyl)-N-ethylamino]pyridazine-3-carboxamide, or a matching placebo was administered orally as tablets, with 200 mL of distilled water. The subjects were directed to remain semi-recumbent for six hours after dosing. A 4.9 mL sample of blood was taken into a tube containing lithium heparin anticoagulant, and plasma was separated by centrifugation for the clinical chemistry analysis at the pretrial medical examinations, pre-dose, 6 hours and 24 hours after dosing on each trial day. Concentrations of the uric acid were determined by standard analytical techniques.
The listed percentages represent mean blood level of uric acid at 24 hours after administration of the test substance (active compound or placebo) as a percentage of the baseline uric acid level measured prior to administration. […] In particular at a dose of 400 mg the mean uric acid blood level is reduced by 29%. Doses of 800 mg and 1600 mg likewise reduce blood levels of uric acid by 33% and 42% respectively.

## CCCS(=O)(=O)NC(=O)c1ccc(N(CC)Cc2cc(Br)ccc2OCC2CC2)nn1 [N-propanesulfonyl-6-[N-(5-bromo-2-(cyclopropylmethoxy)benzyl)-N-ethylamino]pyridazine-3-carboxamide]
Dose of 400 mg
  mean uric acid blood level reduced by: 29%
Dose of 800 mg
  mean uric acid blood level reduced by: 33%
Dose of 1600 mg
  mean uric acid blood level reduced by: 42%
Dose 1 mg
  % at 24 hrs. (mean blood level of uric acid at 24 hours after administration as a percentage of the baseline level): 98.8%
Dose 1 mg, n=4
  Mean uric acid 24 hr. after dose: 280
Dose 5 mg
  % at 24 hrs. (mean blood level of uric acid at 24 hours after administration as a percentage of the baseline level): 90.1%
Dose 5 mg, n=4
  Mean uric acid 24 hr. after dose: 245
Dose 25 mg
  % at 24 hrs. (mean blood level of uric acid at 24 hours after administration as a percentage of the baseline level): 93.2%
Dose 25 mg, n=4
  Mean uric acid 24 hr. after dose: 237
Dose 100 mg
  % at 24 hrs. (mean blood level of uric acid at 24 hours after administration as a percentage of the baseline level): 90.0%
Dose 100 mg, n=4
  Mean uric acid 24 hr. after dose: 286
Dose 200 mg
  % at 24 hrs. (mean blood level of uric acid at 24 hours after administration as a percentage of the baseline level): 85.2%
Dose 200 mg, n=4
  Mean uric acid 24 hr. after dose: 268
Dose 400 mg
  % at 24 hrs. (mean blood level of uric acid at 24 hours after administration as a percentage of the baseline level): 70.6%
Dose 400 mg, n=4
  Mean uric acid 24 hr. after dose: 242
Dose 800 mg
  % at 24 hrs. (mean blood level of uric acid at 24 hours after administration as a percentage of the baseline level): 66.7%
Dose 800 mg, n=4
  Mean uric acid 24 hr. after dose: 237
Dose 1600 mg
  % at 24 hrs. (mean blood level of uric acid at 24 hours after administration as a percentage of the baseline level): 57.6%
Dose 1600 mg, n=6
  Mean uric acid 24 hr. after dose: 168
